pKd: −log10 of the molar value.
Assays:
CD20 = molecular target: T1, CD20 (Homo sapiens, UniProt P11836); experiment: Flow cytometry: blocking of fluorescent anti-CD20 labeling of Daudi cells; assay type: cell-based; details: CD20 positive Daudi lymphoma cells pretreated prior to CD20 labeling
T1 construct: CD20 positive Daudi lymphoma cells; endogenous in cells; host or cells: Daudi lymphoma cells
T1 sequence (P11836 1-297): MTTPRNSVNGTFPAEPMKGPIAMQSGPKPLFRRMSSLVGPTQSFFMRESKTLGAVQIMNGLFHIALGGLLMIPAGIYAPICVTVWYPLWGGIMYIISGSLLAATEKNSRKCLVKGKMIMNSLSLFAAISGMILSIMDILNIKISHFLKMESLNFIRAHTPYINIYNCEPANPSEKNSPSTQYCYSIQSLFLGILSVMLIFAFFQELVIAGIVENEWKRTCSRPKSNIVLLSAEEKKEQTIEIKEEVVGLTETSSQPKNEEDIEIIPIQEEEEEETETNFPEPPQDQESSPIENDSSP
From the text: FIGS. 1A-1F depicts the results of an experiment in which CD20 positive Daudi lymphoma cells were labeled with fluorescent tagged anti-human CD20 or isotype matched control in panels F and A, respectively, and analyzed by flow cytometry. In the other panels, the Daudi cells were pretreated with ABRAXANE® (ABX; FIG. 1B), ABX/rituximab nanoparticles (AR160; FIG. 1C), lyophilized and resuspended AR160 (AR160L; FIG. 1D), or Rituxan (FIG. 1E) prior to CD20 labeling.
CD20 positive Daudi lymphoma cells were labeled with fluorescent tagged anti-human CD20 or isotype matched control in panel F and A, respectively, and analyzed by flow cytometry. In the other panels, the Daudi cells were pretreated with ABX, AR160, AR160L (AR160 lyophilized and resuspended into a solution suitable for injection), or Rituxan prior to CD20 labeling.

ABX = experiment: Biolayer interferometry (BLItz) of biotinylated atezolizumab on streptavidin probes exposed to ABX; details: ABX at 100, 500, 1000 μg/mL in 1×PBS; read-out: Kd (binding affinity between atezolizumab and ABX)
Method: Biolayer interferometry (BLItz) (Forte Bioscience) was performed using streptavidin probes.
To determine whether atezolizumab and ABX are capable of interacting to form nanoparticle complexes, Biolayer interferometry (BLItz) (Forte Bioscience) was performed using streptavidin probes. 100 ug/ml of biotinylated atezolizumab in 1×PBS was bound to the streptavidin probe. After washing unbound atezolizumab from the probe, the antibody-bound probe was exposed to ABX at concentrations of 100, 500, 1000 μg/mL in 1×PBS. An antibody probe exposed to PBS was used as background and background was subtracted. BLItz software was used to calculate dissociation constants (FIG. 7).

[1] = test system: PD-L1 positive C8161 melanoma tumor cells; experiment: In vivo efficacy in athymic nude mice bearing C8161 melanoma tumors; details: single IV tail vein dose; atezolizumab 18 mg/kg, ABX 45 mg/kg, AA130 18 mg/kg atezolizumab and 45 mg/kg ABX
Method: FIGS. 11A-11D show the change in tumor volume over time in mice that were injected with 2×10^6 PD-L1 positive C8161 melanoma tumor cells, then treated by 100 ul IV tail vein injection with saline (FIG. 11A), atezolizumab alone (18 mg/kg; FIG. 11B), ABX alone (45 mg/kg; FIG. 11C) and AA130 (18 mg/kg atezolizumab and 45 mg/kg ABX; FIG. 11D) one time. Tumor growth was monitored 3 times per week. Tumor size was calculated with the equation: (length×width^2)/2.
Kaplan Meier curves were generated using Graph Pad software. The median survival for each group was 14, 13, 16, and 21.5 days for saline, atezolizumab, Abraxane and AA130, respectively. Survival differences between AA130 and all other groups were significant, with p-values of 0.0008 for saline, 0.0015 for atezolizumab, and 0.0113 for ABX.
Athymic nude mice (Harlan Sprague Dawley) were injected with 2×10^6 PD-L1 positive C8161 melanoma tumor cells. The tumors were allowed to grow until about 600 mm^3 and were treated by 100 μl IV tail vein injection with saline, atezolizumab alone (18 mg/kg), ABX alone (45 mg/kg) and AA130 (18 mg/kg atezolizumab and 45 mg/kg ABX) one time (FIGS. 11A-11D). Tumor growth was monitored 3 times/week. Tumor size was calculated with the equation: (length×width^2)/2.
Kaplan Meier curves were generated using Graph Pad software. […]

CD20 binding of fluorescent anti-CD20 antibody after pretreatment (CD20) | Substance | pKd (ABX) | median survival [1]
specifically blocked | Rituxan: rituximab, anti-CD20 antibody used as free antibody control | – | –
– | atezolizumab: anti-PD-L1 mAb, humanized monoclonal antibody | 8.84 | 13 days

Reference: patent US11548946B2, “Carrier-PD-L1 binding agent compositions for treating cancers” (Mayo Foundation for Medical Education and Research, priority 2016, dated 2023)
